Results on nine compounds are retold here after ChEMBL document CHEMBL1833792, “Synthesis of glycoconjugate carbonic anhydrase inhibitors by ruthenium-catalysed azide-alkyne 1,3-dipolar cycloaddition” (Bioorg Med Chem Lett, 2011).

Each structure is given as a SMILES string.

Assay [1] in a line: Selectivity ratio of Ki for carbonic anhydrase 1 to Ki for carbonic anhydrase 9.
Assay [2] deals with Carbonic anhydrase 9 (Homo sapiens) (UniProt Q16790).
Description: Inhibition of recombinant carbonic anhydrase 9 by stopped flow CO2 hydration assay
Assay [3] concerns the target Carbonic anhydrase 2 (Homo sapiens) (UniProt P00918).
Description: Inhibition of recombinant carbonic anhydrase 2 by stopped flow CO2 hydration assay
Assay [4] in a line: Selectivity ratio of Ki for carbonic anhydrase 2 to Ki for carbonic anhydrase 9.
In assay [5] the target is Carbonic anhydrase 1 (Homo sapiens) (UniProt P00915).
Description: Inhibition of recombinant carbonic anhydrase 1 by stopped flow CO2 hydration assay
Assay [6] in a line: Selectivity ratio of Ki for carbonic anhydrase 1 to Ki for carbonic anhydrase 2.

Chain of Carbonic anhydrase 1 (Homo sapiens) (P00915 2-261 limits assumed): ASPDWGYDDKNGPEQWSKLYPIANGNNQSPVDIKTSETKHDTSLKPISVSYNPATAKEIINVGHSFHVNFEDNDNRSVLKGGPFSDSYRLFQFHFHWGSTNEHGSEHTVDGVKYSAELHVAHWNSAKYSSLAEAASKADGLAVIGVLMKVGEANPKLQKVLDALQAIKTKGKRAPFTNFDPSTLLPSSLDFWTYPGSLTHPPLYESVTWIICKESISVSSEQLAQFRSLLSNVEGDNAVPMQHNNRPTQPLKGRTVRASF

As to `NS(=O)(=O)c1ccc(-c2cnnn2[C@@H]2O[C@H](CO)[C@@H](O)[C@H](O)[C@H]2O)cc1`, the Ratio Ki in assay [1] worked out at 11; in assay [4], 1.1. The Kis in assay [2] was found to be 7 nM; in assay [3], 7.5 nM; in assay [5], 74 nM.
Consider `CC(=O)OC[C@H]1O[C@@H](n2nncc2-c2ccc(S(N)(=O)=O)cc2)[C@H](OC(C)=O)[C@@H](OC(C)=O)[C@H]1OC(C)=O`, for which the Ratio Ki turned out to be 9.7 in assay [1] and 0.33 in assay [4]. The Kis amounted to 7.3 nM in assay [2], 2.4 nM in assay [3] and 71 nM in assay [5].
As for `CC(=O)O[C@H]1[C@H](OC(C)=O)[C@H](OC(C)=O)CO[C@H]1n1nncc1-c1ccc(S(N)(=O)=O)cc1`, the results for the Ratio Ki in assay [1], in assay [6] and in assay [4] were 64, 1510 and 0.04, respectively. Further, the Kis in assay [2] turned out to be 68.3 nM; in assay [3], 2.9 nM; in assay [5], 4390 nM.
Regarding `NS(=O)(=O)c1ccc(-c2cnnn2[C@@H]2OC[C@@H](O)[C@@H](O)[C@@H]2O)cc1`, the Ratio Ki in assay [1] came out at 1.7; in assay [4], 0.18. Further, the Kis in assay [2] stood at 48.3 nM; in assay [3] it was 8.9 nM; in assay [5], 83 nM.
Regarding `COC(=O)[C@H]1O[C@@H](n2nncc2-c2ccc(S(N)(=O)=O)cc2)[C@H](OC(C)=O)[C@@H](OC(C)=O)[C@@H]1OC(C)=O`, the Ratio Ki worked out at 0.45 in assay [1] and 0.4 in assay [4]. In addition, the results for the Kis in assay [2], in assay [3] and in assay [5] were 7.7 nM, 3.1 nM and 3.5 nM, respectively.
For `CC(=O)OC[C@H]1O[C@@H](n2nncc2-c2ccc(S(N)(=O)=O)cc2)[C@H](OC(C)=O)[C@@H](OC(C)=O)[C@@H]1O[C@H]1O[C@H](COC(C)=O)[C@@H](OC(C)=O)[C@H](OC(C)=O)[C@H]1OC(C)=O` the same measures were 0.91, 0.85, 7.4 nM, 6.3 nM and 6.7 nM.
For `NS(=O)(=O)c1ccc(-c2cnnn2[C@@H]2O[C@H](CO)[C@@H](O[C@H]3O[C@H](CO)[C@@H](O)[C@H](O)[C@H]3O)[C@H](O)[C@H]2O)cc1` the same measures were 0.56, 0.53, 8.7 nM, 4.6 nM and 4.9 nM.
For `NS(=O)(=O)c1ccc(-c2cnnn2[C@@H]2O[C@H](CO)[C@H](O)[C@H](O)[C@H]2O)cc1` the same measures were 9.4, 1.7, 8.4 nM, 13.9 nM and 79 nM.
Regarding `CC(=O)OC[C@H]1O[C@@H](n2nncc2-c2ccc(S(N)(=O)=O)cc2)[C@H](OC(C)=O)[C@@H](OC(C)=O)[C@@H]1OC(C)=O`, the Ratio Ki in assay [1] is 42.7; in assay [4], 5. Also, the Kis in assay [2] was found to be 32.6 nM; in assay [3] it was 163 nM; in assay [5], 1360 nM.
